Results reported in patent EP4389746A2, “P2X3 RECEPTOR ANTAGONISTS” (Recordati Industria Chimica E Farmaceutica SPA, priority 2022, dated 2024).

Legend:
[1] = target: T1, human P2X2/3 receptor (Homo sapiens, UniProt P56373+Q9UBL9); assay: Calcium fluorescence measurement: human P2X2/3 receptor activity inhibition (CHO-K1 cells, Fluo-8 NoWash, […]); type: cell-based
T1 construct: expressed in transfected cells; host or cells: CHO-K1
T1 sequence (P56373 1-397): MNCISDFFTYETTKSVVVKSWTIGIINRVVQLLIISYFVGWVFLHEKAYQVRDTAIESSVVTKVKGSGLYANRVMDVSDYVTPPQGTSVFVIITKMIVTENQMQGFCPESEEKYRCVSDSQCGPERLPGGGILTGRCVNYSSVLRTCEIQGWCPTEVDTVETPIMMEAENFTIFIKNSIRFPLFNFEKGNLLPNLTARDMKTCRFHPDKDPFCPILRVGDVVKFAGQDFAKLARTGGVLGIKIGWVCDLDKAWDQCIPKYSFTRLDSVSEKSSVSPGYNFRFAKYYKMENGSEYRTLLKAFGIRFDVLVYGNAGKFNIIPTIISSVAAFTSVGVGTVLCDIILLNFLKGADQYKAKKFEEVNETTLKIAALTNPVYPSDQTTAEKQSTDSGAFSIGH
T1 sequence (Q9UBL9 1-471): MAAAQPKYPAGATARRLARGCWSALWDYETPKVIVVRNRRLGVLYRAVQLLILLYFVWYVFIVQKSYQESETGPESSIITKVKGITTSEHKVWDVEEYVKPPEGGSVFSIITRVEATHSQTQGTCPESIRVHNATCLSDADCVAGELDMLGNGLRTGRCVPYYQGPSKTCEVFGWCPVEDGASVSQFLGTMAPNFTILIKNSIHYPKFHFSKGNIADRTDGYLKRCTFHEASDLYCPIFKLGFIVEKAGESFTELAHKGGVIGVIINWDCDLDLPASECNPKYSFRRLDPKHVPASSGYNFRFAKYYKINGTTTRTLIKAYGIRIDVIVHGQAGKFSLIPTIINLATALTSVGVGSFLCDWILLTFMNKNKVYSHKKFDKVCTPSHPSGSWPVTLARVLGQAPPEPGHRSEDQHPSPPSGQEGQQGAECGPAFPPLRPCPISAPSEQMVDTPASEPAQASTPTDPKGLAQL
Description: Determination of human P2X2/3 receptor activity inhibition
The assay for the human P2RX2/X3 has been evaluated by the screening instrumentation using the […] as reader and the FLUO8-NoWash dye as fluorescent readout for calcium detection.
CHO-K1 cells recombinantly expressing the human P2RX2/X3 channel are maintained in DMEM F-12 (1:1) mixture (LONZA cat. n°: BE04-687F/U1) supplemented with 5 mL of 100 mM Sodium Pyruvate (LONZA cat. n° BE13-115E), 25 mL of 7.5% Sodium Bicarbonate (LONZA cat. n° BE17-613E), 6.5 mL of 1M Hepes (LONZA cat. n° BE17-737E), 5 mL of 100X Penicillin/Streptomycin mixture (LONZA cat. n° DE17-602E) and 50 mL of Fetal Bovine Serum (Sigma cat. n° F7524), 5 µg/mL Puromycin dihydrochloride (Sigma cat. n° P9620) and 1 mg/ml G418 disulfate salt (Sigma cat. n° G8168).
Cells were seeded into black-walled clear bottom 384 Multiwell plates at a density of 10.000 cells/well in complete medium. After 24 h the culture medium was replaced with 20 µL/well of Fluo-8 NoWash calcium sensitive dye (AAT Bioquest cat. n° 36316) diluted in Tyrode's buffer (Standard Tyrode's buffer: in house solution, 130 mM NaCl, 5 mM KCl, 2 mM CaCl2, 5 mM NaHCO3, 1 mM MgCl2, 20 mM HEPES, pH 7.4).
The plates were incubated for 1 hours at 37°C and injected with 10 µL/well of test compounds at 3X concentration in Tyrode's buffer with the […]. After 5 minutes a second injection of 15 µL/well of 10µM α,β-Met-ATP in Tyrode's buffer (α,β-Met-ATP: from Tocris cat. n° 3209) was performed and the signal of the emitted fluorescence was recorded by […] (Molecular Devices).
The selectivity is expressed as the ratio of IC50 of P2X2/3/ P2X3 receptors. Table 8: Human P2X3 and h-P2X2/3 receptor antagonist activity for selected compounds of the invention.

[2] = tested on: C57BL/6J mice; assay: Scratching model: inhibition of ATP induced pruritus in mouse; type: in vivo
Description: (§1) C57BL/6J mice, Hartley Guinea pigs and Sprague-Dawley Rats from Charles River Italy were used in the experiments. Animals were housed with free access to food and water and maintained on a forced 12 hr light-dark cycle at 22-24°C for at least one week before the experiments were carried out. The animals were handled according to internationally accepted principles for care of laboratory animals (Directive 2010/63/EU of the European Parliament and of the Council of 22 September 2010).
"Scratchng model" - Inhibition of ATP induced pruritus in mouse
Mice were shaved at the rostral back the day before injection. The day of the experiment, an intradermal injection of the irritant agent α,β-meATP 200 µg/50 µL (Sigma, Italy) into the skin was performed. The hind limb scratching behavior directed toward the injection site, was recorded. One bout was defined as the lifting of the hindlimb toward the injection site and then placing the limb back on the floor. The number of bouts were counted for a period of 30 minutes. The Example 22 compound investigated was injected intraperitoneally 30 min before the administration of the irritant agent. (Fig. 2)
In the scratching model the results are presented as mean ± SEM of the values. Statistical analysis was performed using one-way ANOVA and Dunnet's test for multiple comparisons. The ED35 of the tested compounds was determined by linear regression analysis of bouts (Graphpad v5).

[3] = tested on: Hartley Guinea pigs; assay: Cough model: inhibition of citric acid induced cough in guinea pig; type: in vivo; details: intraperitoneally 30 min before nebulization of citric acid 0.4 M, compared with vehicle (Fig. 3)
Description: as §1
"Cough model" - Inhibition of citric acid induced cough in guinea pig
Conscious guinea pigs were placed in the transparent chamber of the whole-body plethysmograph (EMKA) and allowed to move freely. The number of coughs was registered by the IOX2 software for 10 minutes during and 10 minutes after the nebulization of citric acid 0.4 M. Example 22 was injected intraperitoneally 30 min before the nebulization of citric acid. (see Fig. 3) In cough model the results are presented as mean ± SEM of the values. Statistical analysis was performed using one-way ANOVA and Dunnet's test for multiple comparisons.

**Q.** `CC(C)C1C(=O)N=C2c3ncc(N4CCOCC4)cc3N(Cc3ccc(Cl)cc3)C(=O)N21` (racemic) [Example 22, 6-[(4-Chlorophenyl)methyl]-8-(morpholin-4-yl)-3-(propan-2-yl)imidazo[1,2-c]pyrido[2,3-e]pyrimidine-2,5(3H,6H)-dione] was tested. Which IC50 ([1]; CHO-K1 cells expressing human P2RX2/X3 channel, 10µM α,β-Met-ATP, read-out: h-P2X2/3 IC50) did it give?
**A.** 18.8 µM

**Q.** And the Selectivity ([1]; ratio of IC50 of P2X2/3/ P2X3 receptors)?
**A.** 510

**Q.** And the “ED35” value ([2]; dose inhibiting the 35% of number of bouts, intraperitoneally 30 min before α,β-meATP 200 µg/50 µL intradermal, bouts counted for 30 minutes)?
**A.** 10.62 mg/kg

**Q.** What about the number of bouts ([2]; intraperitoneally 30 min before α,β-meATP, vs vehicle group (Fig. 2)) of the same compound?
**A.** reduce the number of bouts significantly and in a dose-related manner

**Q.** And the number of coughs [3]?
**A.** significantly reduced the number of coughs both during and after the nebulization of citric acid
